{"source": "ChEMBL document CHEMBL1139489", "about": "“Design and NMR characterization of active analogues of compstatin containing non-natural amino acids” (J Med Chem, 2005)", "note": "Positions of bridges follow the written chain, without caps; N, C: chain ends. Non-standard residues stand in square brackets, D forms with d. Residues, ends and D or L forms follow the SMILES beside them. Abu = CC[C@H](N)C(=O)O", "data": [{"molecular_target": "Complement C3 (Homo sapiens, UniProt P01024)", "sequence (P01024 23-667 limits assumed)": "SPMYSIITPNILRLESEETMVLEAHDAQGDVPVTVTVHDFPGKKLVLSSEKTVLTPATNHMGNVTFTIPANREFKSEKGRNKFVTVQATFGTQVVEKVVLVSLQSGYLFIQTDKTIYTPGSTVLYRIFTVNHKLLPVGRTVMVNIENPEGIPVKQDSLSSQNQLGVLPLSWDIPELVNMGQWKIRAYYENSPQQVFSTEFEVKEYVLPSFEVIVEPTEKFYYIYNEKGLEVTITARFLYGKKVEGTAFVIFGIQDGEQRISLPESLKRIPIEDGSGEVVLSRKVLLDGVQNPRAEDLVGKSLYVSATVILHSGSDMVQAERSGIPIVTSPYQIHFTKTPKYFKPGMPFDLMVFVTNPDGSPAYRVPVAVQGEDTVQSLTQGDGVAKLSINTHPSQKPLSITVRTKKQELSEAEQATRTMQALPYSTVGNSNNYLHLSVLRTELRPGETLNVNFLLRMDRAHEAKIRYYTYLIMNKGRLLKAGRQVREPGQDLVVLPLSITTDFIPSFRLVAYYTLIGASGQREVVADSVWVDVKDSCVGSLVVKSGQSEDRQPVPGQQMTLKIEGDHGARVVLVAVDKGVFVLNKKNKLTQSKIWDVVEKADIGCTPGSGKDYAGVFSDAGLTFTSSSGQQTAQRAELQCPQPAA", "sequence (P01024 672-1663 limits assumed)": "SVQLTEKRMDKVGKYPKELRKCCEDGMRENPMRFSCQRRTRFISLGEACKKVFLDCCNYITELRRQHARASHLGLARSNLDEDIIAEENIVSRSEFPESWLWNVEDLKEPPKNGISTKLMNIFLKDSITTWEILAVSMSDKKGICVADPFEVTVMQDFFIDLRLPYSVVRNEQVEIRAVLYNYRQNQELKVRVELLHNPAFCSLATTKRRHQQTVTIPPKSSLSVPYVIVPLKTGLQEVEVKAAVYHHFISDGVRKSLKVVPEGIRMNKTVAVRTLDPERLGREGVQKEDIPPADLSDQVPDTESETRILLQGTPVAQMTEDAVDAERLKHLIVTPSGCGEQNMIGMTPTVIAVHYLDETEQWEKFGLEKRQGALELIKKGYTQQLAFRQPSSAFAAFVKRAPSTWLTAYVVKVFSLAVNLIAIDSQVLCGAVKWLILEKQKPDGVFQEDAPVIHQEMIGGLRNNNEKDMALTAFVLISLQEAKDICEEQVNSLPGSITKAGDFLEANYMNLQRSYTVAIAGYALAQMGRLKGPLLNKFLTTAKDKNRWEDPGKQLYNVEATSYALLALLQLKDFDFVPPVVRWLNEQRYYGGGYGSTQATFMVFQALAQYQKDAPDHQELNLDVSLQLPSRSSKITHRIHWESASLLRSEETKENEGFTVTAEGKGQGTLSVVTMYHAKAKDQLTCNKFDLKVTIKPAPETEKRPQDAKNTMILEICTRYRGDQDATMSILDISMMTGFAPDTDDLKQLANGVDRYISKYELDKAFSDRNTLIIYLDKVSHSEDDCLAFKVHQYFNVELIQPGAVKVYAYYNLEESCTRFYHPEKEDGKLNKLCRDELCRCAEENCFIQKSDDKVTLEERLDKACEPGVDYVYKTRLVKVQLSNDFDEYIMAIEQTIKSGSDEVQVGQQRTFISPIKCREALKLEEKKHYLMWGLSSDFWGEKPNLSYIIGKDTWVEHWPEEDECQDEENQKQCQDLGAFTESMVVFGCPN", "test": "Inhibitory concentration for human complement component C3 activation", "units": {"IC50": "µM"}, "values": [{"smiles": "CC[C@H](C)[C@H](NC(C)=O)C(=O)N[C@H]1CSSC[C@@H](C(=O)N[C@H](C(N)=O)[C@@H](C)O)NC(=O)[C@H](CCCNC(=N)N)NC(=O)[C@H](Cc2cnc[nH]2)NC(=O)[C@H](C)NC(=O)CNC(=O)[C@H](Cc2c[nH]c3ccccc23)NC(=O)[C@H](CC(=O)O)NC(=O)[C@H](CCC(N)=O)NC(=O)[C@H](C(C)C)NC(=O)[C@H](C(C)C)NC1=O", "IC50": 12.4}, {"smiles": "CC[C@H](C)[C@H](NC(C)=O)C(=O)N[C@H]1CSSC[C@@H](C(=O)N[C@H](C(N)=O)[C@@H](C)O)NC(=O)[C@H](CCCN=C(N)N)NC(=O)[C@H](Cc2c[nH]cn2)NC(=O)[C@H](C)NC(=O)CNC(=O)[C@H](Cc2c[nH]c3ccccc23)NC(=O)[C@H](CC(=O)O)NC(=O)[C@H](CCC(N)=O)NC(=O)[C@H](C2Cc3ccccc3C2)NC(=O)[C@H](C(C)C)NC1=O", "IC50": 1.4}, {"smiles": "CC[C@H](C)[C@H](NC(C)=O)C(=O)N[C@H]1CSSC[C@@H](C(N)=O)NC(=O)[C@H](CCCNC(=N)N)NC(=O)[C@H](Cc2cnc[nH]2)NC(=O)[C@H](Cc2cnc[nH]2)NC(=O)CNC(=O)[C@H](Cc2c[nH]c3ccccc23)NC(=O)[C@@H](CC(=O)O)NC(=O)[C@H](CCC(N)=O)NC(=O)[C@H](C(C)C)NC(=O)[C@H](C(C)C)NC1=O", "IC50": "> 1000"}, {"smiles": "CC[C@H](C)[C@H](NC(C)=O)C(=O)N[C@H]1CSSC[C@@H](C(=O)N[C@H](C(N)=O)[C@@H](C)O)NC(=O)[C@H](CCCNC(=N)N)NC(=O)[C@H](Cc2c[nH]cn2)NC(=O)[C@H](Cc2c[nH]cn2)NC(=O)CNC(=O)[C@H](Cc2c[nH]c3ccccc23)NC(=O)[C@H](CC(=O)O)NC(=O)[C@H](CCC(N)=O)NC(=O)[C@H](C(C)C)NC(=O)[C@H](C(C)C)NC1=O", "IC50": 32}, {"smiles": "CC[C@H](C)[C@H](NC(C)=O)C(=O)N[C@H]1CSSC[C@@H](C(=O)N[C@H](C(N)=O)[C@@H](C)O)NC(=O)[C@H](CCCN=C(N)N)NC(=O)[C@H](Cc2c[nH]cn2)NC(=O)[C@H](C)NC(=O)CNC(=O)[C@H](Cc2c[nH]c3ccccc23)NC(=O)[C@H](CC(=O)O)NC(=O)[C@H](CCC(N)=O)NC(=O)[C@H](Cc2csc3ccccc23)NC(=O)[C@H](C(C)C)NC1=O", "IC50": 0.8}, {"smiles": "CC[C@@H]1NC(=O)CNC(=O)[C@H](Cc2c[nH]c3ccccc23)NC(=O)[C@H](CC(=O)O)NC(=O)[C@H](CCC(N)=O)NC(=O)[C@H](Cc2c[nH]c3ccccc23)NC(=O)[C@H](C(C)C)NC(=O)[C@@H](NC(=O)[C@@H](NC(C)=O)[C@@H](C)CC)CSSC[C@@H](C(=O)N[C@H](C(N)=O)[C@@H](C)O)NC(=O)[C@H](CCCN=C(N)N)NC(=O)[C@H](Cc2c[nH]cn2)NC1=O", "note": "(Ac-ICVWQDWG[Abu]HRCT-NH2; disulfide 2-12)", "IC50": 1.5}, {"smiles": "CC[C@H](C)[C@H](NC(C)=O)C(=O)N[C@H]1CSSC[C@@H](C(=O)N[C@H](C(=O)O)[C@@H](C)O)NC(=O)[C@H](CCCN=C(N)N)NC(=O)[C@H](Cc2c[nH]cn2)NC(=O)[C@H](C)NC(=O)CNC(=O)[C@H](Cc2c[nH]c3ccccc23)NC(=O)[C@H](CC(=O)O)NC(=O)[C@H](CCC(N)=O)NC(=O)[C@H](Cc2csc3ccccc23)NC(=O)[C@H](C(C)C)NC1=O", "IC50": 0.8}, {"smiles": "CC[C@H](C)[C@H](NC(C)=O)C(=O)N[C@H]1CSSC[C@@H](C(=O)N[C@H](C(N)=O)[C@@H](C)O)NC(=O)[C@H](CCCN=C(N)N)NC(=O)[C@H](Cc2c[nH]cn2)NC(=O)[C@H](Cc2c[nH]cn2)NC(=O)CNC(=O)[C@H](Cc2c[nH]c3ccccc23)NC(=O)[C@H](CC(=O)O)NC(=O)[C@H](CCC(N)=O)NC(=O)[C@H](CO)NC(=O)[C@H](C(C)C)NC1=O", "IC50": 50.9}, {"smiles": "CC[C@H](C)[C@H](NC(C)=O)C(=O)N[C@H]1CSSC[C@@H](C(=O)N[C@H](C(N)=O)[C@@H](C)O)NC(=O)[C@H](CCCNC(=N)N)NC(=O)[C@H](Cc2c[nH]cn2)NC(=O)[C@H](C)NC(=O)CNC(=O)[C@H](Cc2c[nH]c3ccccc23)NC(=O)[C@H](CC(=O)O)NC(=O)[C@H](CCC(N)=O)NC(=O)[C@H](Cc2ccc3ccccc3c2)NC(=O)[C@H](C(C)C)NC1=O", "IC50": 0.5}, {"smiles": "CC[C@H](C)[C@H](NC(C)=O)C(=O)N[C@H]1CSSC[C@@H](C(=O)N[C@H](C(=O)O)[C@@H](C)O)NC(=O)[C@H](CCCN=C(N)N)NC(=O)[C@H](Cc2c[nH]cn2)NC(=O)[C@H](C)NC(=O)CNC(=O)[C@H](Cc2c[nH]c3ccccc23)NC(=O)[C@H](CC(=O)O)NC(=O)[C@H](CCC(N)=O)NC(=O)[C@H](Cc2cccc3ccccc23)NC(=O)[C@H](C(C)C)NC1=O", "IC50": 1.8}, {"smiles": "CC[C@H](C)[C@H](NC(C)=O)C(=O)N[C@H]1CSSC[C@@H](C(=O)N[C@H](C(N)=O)[C@@H](C)O)NC(=O)[C@H](CCCNC(=N)N)NC(=O)[C@H](Cc2cnc[nH]2)NC(=O)[C@H](Cc2cnc[nH]2)NC(=O)CNC(=O)[C@H](Cc2c[nH]c3ccccc23)NC(=O)[C@H](CC(=O)O)NC(=O)[C@H](CCC(N)=O)NC(=O)[C@H]([C@@H](C)O)NC(=O)[C@H](C(C)C)NC1=O", "IC50": 68.3}, {"smiles": "CC[C@H](C)[C@H](NC(C)=O)C(=O)N[C@H]1CSSC[C@@H](C(=O)N[C@H](C(N)=O)[C@@H](C)O)NC(=O)[C@H](CCCN=C(N)N)NC(=O)[C@H](Cc2c[nH]cn2)NC(=O)[C@H](Cc2c[nH]cn2)NC(=O)CNC(=O)[C@H](Cc2c[nH]c3ccccc23)NC(=O)[C@H](CC(=O)O)NC(=O)[C@H](CCC(N)=O)NC(=O)[C@H](Cc2ccccc2)NC(=O)[C@H](C(C)C)NC1=O", "IC50": 10.2}, {"smiles": "CC[C@H](C)[C@H](NC(=O)[C@@H]1CSSC[C@H](NC(=O)[C@@H](NC(C)=O)[C@@H](C)CC)C(=O)N[C@@H](C(C)C)C(=O)N[C@H](Cc2c[nH]c3ccccc23)C(=O)N[C@@H](CCC(N)=O)C(=O)N[C@@H](CC(=O)O)C(=O)N[C@@H](Cc2c[nH]c3ccccc23)C(=O)NCC(=O)N[C@@H](C)C(=O)N[C@@H](Cc2c[nH]cn2)C(=O)N[C@@H](CCCN=C(N)N)C(=O)N1)C(N)=O", "IC50": "> 1000"}, {"smiles": "CC[C@H](C)[C@H](NC(C)=O)C(=O)N[C@H]1CSSC[C@@H](C(=O)N[C@H](C(=O)O)[C@@H](C)O)NC(=O)[C@H](CCCNC(=N)N)NC(=O)[C@H](Cc2cnc[nH]2)NC(=O)[C@H](C)NC(=O)CNC(=O)[C@H](Cc2c[nH]c3ccccc23)NC(=O)[C@H](CC(=O)O)NC(=O)[C@H](CCC(N)=O)NC(=O)[C@H](C2Cc3ccccc3C2)NC(=O)[C@H](C(C)C)NC1=O", "IC50": 1.5}, {"smiles": "CC[C@H](C)[C@H](NC(C)=O)C(=O)N[C@H]1CSSC[C@@H](C(N)=O)NC(=O)[C@H](CCCN=C(N)N)NC(=O)[C@H](Cc2c[nH]cn2)NC(=O)[C@H](Cc2c[nH]cn2)NC(=O)CNC(=O)[C@@H](Cc2c[nH]c3ccccc23)NC(=O)[C@H](CC(=O)O)NC(=O)[C@H](CCC(N)=O)NC(=O)[C@H](C(C)C)NC(=O)[C@H](C(C)C)NC1=O", "IC50": "> 1000"}, {"smiles": "CC[C@H](C)[C@H](NC(=O)[C@@H]1CSSC[C@H](NC(=O)[C@@H](NC(C)=O)[C@@H](C)CC)C(=O)N[C@@H](C(C)C)C(=O)N[C@H](Cc2ccc(O)cc2)C(=O)N[C@@H](CCC(N)=O)C(=O)N[C@@H](CC(=O)O)C(=O)N[C@@H](Cc2c[nH]c3ccccc23)C(=O)NCC(=O)N[C@@H](C)C(=O)N[C@@H](Cc2c[nH]cn2)C(=O)N[C@@H](CCCN=C(N)N)C(=O)N1)C(N)=O", "IC50": "> 1000"}, {"smiles": "CC[C@H](C)[C@H](NC(C)=O)C(=O)N[C@H]1CSSC[C@@H](C(=O)N[C@H](C(N)=O)[C@@H](C)O)NC(=O)[C@H](CCCNC(=N)N)NC(=O)[C@H](Cc2cnc[nH]2)NC(=O)[C@H](Cc2c[nH]c3ccccc23)NC(=O)CNC(=O)[C@H](Cc2c[nH]c3ccccc23)NC(=O)[C@H](CC(=O)O)NC(=O)[C@H](CCC(N)=O)NC(=O)[C@H](Cc2c[nH]c3ccccc23)NC(=O)[C@H](C(C)C)NC1=O", "IC50": 3.1}, {"smiles": "CC[C@H](C)[C@H](NC(C)=O)C(=O)N[C@H]1CSSC[C@@H](C(=O)N[C@H](C(=O)O)[C@@H](C)O)NC(=O)[C@H](CCCN=C(N)N)NC(=O)[C@H](Cc2c[nH]cn2)NC(=O)[C@H](C)NC(=O)CNC(=O)[C@H](Cc2c[nH]c3ccccc23)NC(=O)[C@H](CC(=O)O)NC(=O)[C@H](CCC(N)=O)NC(=O)[C@H](Cc2ccc(C(=O)c3ccccc3)cc2)NC(=O)[C@H](C(C)C)NC1=O", "IC50": 1.1}, {"smiles": "CC[C@H](C)[C@H](NC(C)=O)C(=O)N[C@H]1CSSC[C@@H](C(=O)N[C@H](C(N)=O)[C@@H](C)O)NC(=O)[C@H](CCCNC(=N)N)NC(=O)[C@H](Cc2cnc[nH]2)NC(=O)[C@H](Cc2cnc[nH]2)NC(=O)CNC(=O)[C@H](Cc2c[nH]c3ccccc23)NC(=O)[C@H](CC(=O)O)NC(=O)[C@H](CCC(N)=O)NC(=O)[C@H](Cc2cnc[nH]2)NC(=O)[C@H](C(C)C)NC1=O", "IC50": 10.5}, {"smiles": "CC[C@H](C)[C@H](NC(=O)[C@@H]1CSSC[C@H](NC(=O)[C@@H](NC(C)=O)[C@@H](C)CC)C(=O)N[C@@H](C(C)C)C(=O)N[C@@H](Cc2ccc(OP(=O)(O)O)cc2)C(=O)N[C@@H](CCC(N)=O)C(=O)N[C@@H](CC(=O)O)C(=O)N[C@@H](Cc2c[nH]c3ccccc23)C(=O)NCC(=O)N[C@@H](C)C(=O)N[C@@H](Cc2c[nH]cn2)C(=O)N[C@@H](CCCN=C(N)N)C(=O)N1)C(N)=O", "IC50": 9.6}, {"smiles": "CC[C@H](C)[C@H](NC(C)=O)C(=O)N[C@H]1CSSC[C@@H](C(N)=O)NC(=O)[C@H](CCCN=C(N)N)NC(=O)[C@H](Cc2c[nH]cn2)NC(=O)[C@H](Cc2c[nH]cn2)NC(=O)CNC(=O)[C@H](Cc2c[nH]c3ccccc23)NC(=O)[C@H](CC(=O)O)NC(=O)[C@@H](CCC(N)=O)NC(=O)[C@H](C(C)C)NC(=O)[C@H](C(C)C)NC1=O", "IC50": "> 1000"}, {"smiles": "CC[C@H](C)[C@H](NC(C)=O)C(=O)N[C@H]1CSSC[C@@H](C(=O)N[C@H](C(=O)O)[C@@H](C)O)NC(=O)[C@H](CCCNC(=N)N)NC(=O)[C@H](Cc2cnc[nH]2)NC(=O)[C@H](C)NC(=O)CNC(=O)[C@H](Cc2c[nH]c3ccccc23)NC(=O)[C@H](CC(=O)O)NC(=O)[C@H](CCC(N)=O)NC(=O)[C@H](Cc2ccc3ccccc3c2)NC(=O)[C@H](C(C)C)NC1=O", "IC50": 1.4}, {"smiles": "CC[C@H](C)[C@H](NC(C)=O)C(=O)N[C@H]1CSSC[C@@H](C(=O)N[C@H](C(=O)O)[C@@H](C)O)NC(=O)[C@H](CCCN=C(N)N)NC(=O)[C@H](Cc2c[nH]cn2)NC(=O)[C@H](C)NC(=O)CNC(=O)[C@H](Cc2c[nH]c3ccccc23)NC(=O)[C@H](CC(=O)O)NC(=O)[C@H](CCC(N)=O)NC(=O)[C@H](CC2CCCCC2)NC(=O)[C@H](C(C)C)NC1=O", "IC50": 47.8}, {"smiles": "CC[C@H](C)[C@H](NC(C)=O)C(=O)N[C@H]1CSSC[C@@H](C(=O)N[C@H](C(N)=O)[C@@H](C)O)NC(=O)[C@H](CCCN=C(N)N)NC(=O)[C@H](Cc2c[nH]cn2)NC(=O)[C@H](C)NC(=O)CNC(=O)[C@H](Cc2c[nH]c3ccccc23)NC(=O)[C@H](CC(=O)O)NC(=O)[C@H](CCC(N)=O)NC(=O)[C@H](Cc2ccc(O)cc2)NC(=O)[C@H](C(C)C)NC1=O", "IC50": 3.8}]}]}
